A short description of assay [1]: M. tuberculosis H37Rv growth inhibitors, H37Rv strain (AID 1626). The format is functional.
Assay [2] deals with Cytochrome P450 2C19 (Homo sapiens, UniProt P33261). The assay is described as follows: qHTS Assay for Inhibitors and Substrates of Cytochrome P450 2C19. [Related pubchem assays: 410 ]. The format is ADME. The conditions noted are these: read-out: Potency. In general terms: qHTS replaces the single test concentration by a dilution series.
Assay [3] addresses Cytochrome P450 3A4 (Homo sapiens, UniProt P08684). The conditions noted are these: Potency.
Assay [4] concerns the target Lytic switch protein BZLF1 (Epstein-Barr virus (strain B95-8) (HHV-4) (Human herpesvirus 4), UniProt P03206). Put plainly: EBV ZTA inhibitors, dose response, counter-screen for EBNA-1 inhibitor project, biochemical, fluorescence polarization, Epstein-Barr virus, 1536-well (AID 2377).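 Further: fluorescence polarization of Cy5-labelled ZRE DNA probe bound by purified Zta.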 On the set-up: species or system human gammaherpesvirus 4. A general note: The purpose of a counterscreen is to sort out artefacts and off-target activity.

Assay [5] deals with Epstein-Barr nuclear antigen 1 (Epstein-Barr virus (strain B95-8) (HHV-4) (Human herpesvirus 4), UniProt P03211). The assay is described as follows: EBNA-1 inhibitors, dose response, biochemical, fluorescence polarization, 1536-well (AID 2381).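 Further: fluorescence polarization of a Cy5 DNA probe bound by EBNA-1 protein.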 On the set-up: species or system human gammaherpesvirus 4. (Fluorescence polarisation rises when a labelled molecule tumbles more slowly, as on binding a larger partner.)

For assay [6], the target named is Sphingosine 1-phosphate receptor 2 (Homo sapiens, UniProt O95136). Put plainly: Dose Response Cell Based Assay for Antagonists of the S1P2 Receptor. [Related pubchem assays: 856, 736 ]. The format is functional.
Assay [7] in a line: Dose-response inhibition of insulin secretion in a rat insulinoma line at 5 mM glucose (AID 1117331). The conditions noted are these: INS-1E. The format is functional, cell-based.
Assay [8] is described as follows: HeLa 2N DNA content increase, dose response, cell-based, IC50 (AID 1117349). The format is functional.
Assay [9] in a line: HeLa 4N DNA content increase, dose response, cell-based, IC50 (AID 1117351). The format is functional.
Assay [10] in a line: P. falciparum 3D7-ScDHODH growth inhibitors, dose response, SYBR Green, dry powder samples (AID 1159570).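 Further: parasite growth measured after 72 hours of compound exposure.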 The format is functional, cell-based.
A short description of assay [11]: HepG2 cell cytotoxicity, dose response, cytotoxicity control, plate reader, dry powder samples (AID 1159569).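 Further: inhibitor potency with signal falling toward the positive control level.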 The format is functional, cell-based.
A short description of assay [12]: P. falciparum Dd2 growth inhibitors, dose response, SYBR Green, cherry-picked samples (AID 1159567). The format is functional, cell-based.
Assay [13] can be described thus: P. falciparum Dd2 growth inhibitors, dose response, SYBR Green, dry powder samples (AID 1159566).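 Further: potency for growth inhibition with lower SYBR green DNA signal.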 The format is functional, cell-based.
Assay [14] is described as follows: P. falciparum ATP4 D1247Y mutant growth inhibitors, dose response, NITD609-resistant line, SYBR Green, dry powder (AID 1159571).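 Further: parasites synchronized at ring stage by sorbitol before testing.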 The format is functional, cell-based.
Assay [15] has as its target Photoreceptor-specific nuclear receptor (Homo sapiens, UniProt Q9Y5X4). Put plainly: NR2E3 inverse agonists, dose response, biochemical, TR-FRET (AID 463256). The format is functional.
Assay [16] addresses Peroxisome proliferator-activated receptor gamma/Nuclear receptor corepressor 2 (Homo sapiens, UniProt P37231+Q9Y618). The assay is described as follows: Counterscreen for NR2E3 inverse agonists: TR-FRET-based biochemical high throughput dose response assay to identify inverse agonists of the interaction between peroxisome proliferator-activated receptor gamma (PPARg) and nuclear receptor co-repressor 2 (NCOR2). The format is functional.

Assay [17] addresses T1, Bcl-2-related protein A1 (Mus musculus, UniProt Q07440).
T1 sequence (Q07440 whole entry): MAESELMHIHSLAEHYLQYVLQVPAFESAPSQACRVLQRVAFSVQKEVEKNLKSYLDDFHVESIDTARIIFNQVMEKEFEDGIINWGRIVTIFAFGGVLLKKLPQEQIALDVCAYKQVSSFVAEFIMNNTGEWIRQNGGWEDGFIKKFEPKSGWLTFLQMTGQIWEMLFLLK
Put plainly: Bfl-1 inhibitors blocking BH3 peptide binding, confirmation, biochemical, TR-FRET, mouse Bfl-1 (AID 621).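 Further: TR-FRET binding of GST-Bfl-1 to FITC-labelled Bid peptide via terbium antibody.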

The target of assay [18] is T1, Bcl-2-related protein A1. Put plainly: Bfl-1 binding inhibitors, SAR follow-up, biochemical, fluorescence polarization (AID 1070).
Assay [19] in a line: HepG2 cell cytotoxicity, dose response, cytotoxicity control, cherry-picked samples (AID 1159577). The format is functional, cell-based.
Assay [20] can be described thus: inhibitors of Bluetongue virus cytopathic effect, confirmation, arbovirus, BSR cells (AID 1250).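 Further: protection from viral cytopathic effect measured as cell viability by ATP luminescence.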 The format is functional.
The target in assay [21] is T2, Mannose-6-phosphate isomerase (Homo sapiens, UniProt P34949).
T2 sequence (P34949 whole entry): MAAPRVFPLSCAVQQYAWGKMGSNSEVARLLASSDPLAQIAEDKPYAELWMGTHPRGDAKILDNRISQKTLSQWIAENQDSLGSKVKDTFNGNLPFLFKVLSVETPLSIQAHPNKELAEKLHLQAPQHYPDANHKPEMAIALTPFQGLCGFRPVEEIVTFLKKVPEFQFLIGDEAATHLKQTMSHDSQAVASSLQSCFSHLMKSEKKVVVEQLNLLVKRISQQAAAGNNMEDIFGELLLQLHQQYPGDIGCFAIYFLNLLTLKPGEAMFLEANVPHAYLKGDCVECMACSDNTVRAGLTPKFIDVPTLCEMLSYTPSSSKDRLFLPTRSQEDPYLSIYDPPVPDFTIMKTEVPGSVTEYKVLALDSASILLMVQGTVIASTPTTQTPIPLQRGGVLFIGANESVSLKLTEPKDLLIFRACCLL
Put plainly: human PMI inhibitors, high substrate, primary screen, biochemical, fluorescence intensity, high mannose 6-phosphate (AID 1220).

The target of assay [22] is T3, Protein RecA (Mycobacterium tuberculosis, UniProt P9WHJ3).
T3 sequence (P9WHJ3 whole entry): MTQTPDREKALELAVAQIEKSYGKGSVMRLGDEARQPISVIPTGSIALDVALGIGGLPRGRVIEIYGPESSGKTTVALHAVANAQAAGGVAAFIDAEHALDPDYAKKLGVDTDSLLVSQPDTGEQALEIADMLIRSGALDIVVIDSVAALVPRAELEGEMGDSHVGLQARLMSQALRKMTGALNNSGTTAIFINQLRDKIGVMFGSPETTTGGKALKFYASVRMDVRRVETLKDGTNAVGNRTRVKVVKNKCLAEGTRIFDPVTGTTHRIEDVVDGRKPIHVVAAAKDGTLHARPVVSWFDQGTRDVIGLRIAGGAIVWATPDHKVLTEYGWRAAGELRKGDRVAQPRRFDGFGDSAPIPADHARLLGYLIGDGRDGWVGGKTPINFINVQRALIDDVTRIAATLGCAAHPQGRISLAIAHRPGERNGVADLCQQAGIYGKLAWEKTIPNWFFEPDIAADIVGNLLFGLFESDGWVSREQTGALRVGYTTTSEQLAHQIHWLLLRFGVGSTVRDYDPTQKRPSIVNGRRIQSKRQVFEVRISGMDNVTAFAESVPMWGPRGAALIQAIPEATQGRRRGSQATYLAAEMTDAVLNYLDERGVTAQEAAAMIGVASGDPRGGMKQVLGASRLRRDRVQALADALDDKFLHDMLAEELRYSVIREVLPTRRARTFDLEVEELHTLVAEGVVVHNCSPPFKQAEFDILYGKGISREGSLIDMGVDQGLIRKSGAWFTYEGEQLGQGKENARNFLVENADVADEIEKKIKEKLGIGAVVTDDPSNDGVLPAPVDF
The assay is described as follows: Fluorescence Cell-Free Homogeneous Dose Retest to Identify Inhibitors of RecA-Intein Splicing Activity. [Related pubchem assays (depositor defined):AID2097, AID2223, AID489010, AID492950]. The format is functional.

The test system of assay [23] is H4. The assay is described as follows: Luminescence Cell-Based Dose Response HTS to Identify Activators of 5'UTR Stem-Loop Driven Prion Protein mRNA Translation in H4 Neuroglioblastoma Cells. [Related pubchem assays: 1829 (Project Summary), 1814 (Primary HTS)]. The format is functional. The conditions noted are these: Homo sapiens.
Assay [24] addresses Aryl hydrocarbon receptor (Homo sapiens, UniProt P35869). Put plainly: Luminescence-based cell-based high throughput dose response assay for activators of the Aryl Hydrocarbon Receptor (AHR). [Related pubchem assays: 2796 (Primary screen (AHR activators in singlicate)), 2845 (Confirmation screen (AHR activators in triplicate)), 434939 (Counterscreen (PXR activators in triplicate)), 2804 (Summary (AHR activators))]. The format is ADME.

Assay [25] in a line: Luminescence Cell-Based Dose Response HTS to Identify Activators of Luciferase Translation or Activity in H4 […] Cells. [Related pubchem assays: 1829 (Project Summary), 1814 (Primary HTS)]. The format is functional.
Assay [26] in a line: THP-1 cell cytotoxicity, dose response, cytotoxicity control for Vif-APOBEC3G degradation inhibitor project, THP-1 cells (AID 1117359). The format is functional. To be noted: Human immunodeficiency virus 1, THP-1.
Assay [27] addresses T4, Protein Tat (Human immunodeficiency virus type 1 group M subtype B (isolate HXB2)(HIV-1), UniProt P04608).
T4 sequence (P04608 whole entry): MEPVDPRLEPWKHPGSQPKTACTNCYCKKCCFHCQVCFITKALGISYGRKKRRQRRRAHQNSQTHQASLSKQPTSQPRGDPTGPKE
The format is functional.

Assay [28] can be described thus: microbe, parasite or virus in culture. The format is functional. To be noted: Mycobacterium tuberculosis.
Assay [29] can be described thus: cells. The format is functional.

A word on the IC50: it is the concentration needed to halve the response being measured. As usually defined, the EC50 is the midpoint of the concentration-response curve.

Molecules are shown by their SMILES. The source made the active and inactive calls.

Chain of Lytic switch protein BZLF1 (P03206 whole entry): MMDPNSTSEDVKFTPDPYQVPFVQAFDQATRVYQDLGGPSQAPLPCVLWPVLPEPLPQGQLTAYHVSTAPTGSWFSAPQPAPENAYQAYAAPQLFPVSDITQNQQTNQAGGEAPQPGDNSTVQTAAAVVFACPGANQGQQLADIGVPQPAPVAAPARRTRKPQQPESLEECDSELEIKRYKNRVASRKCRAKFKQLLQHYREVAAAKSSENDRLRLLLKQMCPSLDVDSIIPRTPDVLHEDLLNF
Chain of Epstein-Barr nuclear antigen 1 (P03211 whole entry): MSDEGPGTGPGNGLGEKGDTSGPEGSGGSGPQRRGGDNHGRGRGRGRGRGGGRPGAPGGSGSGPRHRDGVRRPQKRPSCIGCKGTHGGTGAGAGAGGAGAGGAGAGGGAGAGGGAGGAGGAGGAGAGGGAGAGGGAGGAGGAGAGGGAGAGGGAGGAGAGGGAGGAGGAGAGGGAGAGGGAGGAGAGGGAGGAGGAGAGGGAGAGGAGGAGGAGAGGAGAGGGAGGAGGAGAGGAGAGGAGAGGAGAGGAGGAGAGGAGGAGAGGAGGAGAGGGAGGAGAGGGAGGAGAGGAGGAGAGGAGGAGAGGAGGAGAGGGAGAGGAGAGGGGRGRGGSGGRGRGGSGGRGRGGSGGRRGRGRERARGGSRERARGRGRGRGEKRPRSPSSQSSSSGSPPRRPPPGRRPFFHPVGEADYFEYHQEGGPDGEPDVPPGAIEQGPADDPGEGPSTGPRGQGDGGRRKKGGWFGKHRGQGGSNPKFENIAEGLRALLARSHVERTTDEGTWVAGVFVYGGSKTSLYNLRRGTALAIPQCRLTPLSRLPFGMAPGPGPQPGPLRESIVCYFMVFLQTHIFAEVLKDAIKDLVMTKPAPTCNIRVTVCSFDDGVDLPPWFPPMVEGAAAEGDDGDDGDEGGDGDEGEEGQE
Chain of Cytochrome P450 2C19 (P33261 whole entry): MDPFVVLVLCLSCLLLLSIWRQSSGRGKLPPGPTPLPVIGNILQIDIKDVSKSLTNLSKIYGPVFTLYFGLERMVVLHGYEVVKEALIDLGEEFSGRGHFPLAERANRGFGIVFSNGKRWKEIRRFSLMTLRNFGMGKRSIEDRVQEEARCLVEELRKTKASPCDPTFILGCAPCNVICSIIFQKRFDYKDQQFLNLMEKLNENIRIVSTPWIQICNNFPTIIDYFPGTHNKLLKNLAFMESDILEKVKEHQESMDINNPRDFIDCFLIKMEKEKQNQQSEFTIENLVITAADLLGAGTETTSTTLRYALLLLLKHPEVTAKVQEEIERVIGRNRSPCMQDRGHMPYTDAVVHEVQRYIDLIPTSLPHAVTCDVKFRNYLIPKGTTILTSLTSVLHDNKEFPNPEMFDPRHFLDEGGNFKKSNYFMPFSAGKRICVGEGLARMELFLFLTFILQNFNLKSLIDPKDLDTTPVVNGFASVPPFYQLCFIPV
Chain of Aryl hydrocarbon receptor (P35869 whole entry): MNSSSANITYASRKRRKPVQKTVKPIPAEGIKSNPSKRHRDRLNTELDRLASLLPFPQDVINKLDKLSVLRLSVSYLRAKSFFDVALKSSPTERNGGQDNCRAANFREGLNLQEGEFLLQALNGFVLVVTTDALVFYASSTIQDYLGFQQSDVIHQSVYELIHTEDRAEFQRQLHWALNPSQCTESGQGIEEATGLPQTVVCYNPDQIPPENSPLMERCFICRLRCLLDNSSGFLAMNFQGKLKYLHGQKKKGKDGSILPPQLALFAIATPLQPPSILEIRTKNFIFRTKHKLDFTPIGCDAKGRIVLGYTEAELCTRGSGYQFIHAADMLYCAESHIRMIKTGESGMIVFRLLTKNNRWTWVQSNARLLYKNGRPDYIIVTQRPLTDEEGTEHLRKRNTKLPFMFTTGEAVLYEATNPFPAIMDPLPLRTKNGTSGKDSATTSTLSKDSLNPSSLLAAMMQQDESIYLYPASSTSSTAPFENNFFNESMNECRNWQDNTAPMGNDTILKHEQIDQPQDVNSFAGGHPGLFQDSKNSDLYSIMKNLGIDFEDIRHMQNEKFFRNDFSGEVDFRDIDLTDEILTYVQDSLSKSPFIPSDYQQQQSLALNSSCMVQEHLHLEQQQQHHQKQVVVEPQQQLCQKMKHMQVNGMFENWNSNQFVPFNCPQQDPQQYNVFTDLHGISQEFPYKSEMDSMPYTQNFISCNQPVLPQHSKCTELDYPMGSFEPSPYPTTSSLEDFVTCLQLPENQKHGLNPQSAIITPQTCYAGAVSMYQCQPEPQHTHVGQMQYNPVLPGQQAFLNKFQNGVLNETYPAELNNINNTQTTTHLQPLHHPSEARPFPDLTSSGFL
Chain of Photoreceptor-specific nuclear receptor (Q9Y5X4 whole entry): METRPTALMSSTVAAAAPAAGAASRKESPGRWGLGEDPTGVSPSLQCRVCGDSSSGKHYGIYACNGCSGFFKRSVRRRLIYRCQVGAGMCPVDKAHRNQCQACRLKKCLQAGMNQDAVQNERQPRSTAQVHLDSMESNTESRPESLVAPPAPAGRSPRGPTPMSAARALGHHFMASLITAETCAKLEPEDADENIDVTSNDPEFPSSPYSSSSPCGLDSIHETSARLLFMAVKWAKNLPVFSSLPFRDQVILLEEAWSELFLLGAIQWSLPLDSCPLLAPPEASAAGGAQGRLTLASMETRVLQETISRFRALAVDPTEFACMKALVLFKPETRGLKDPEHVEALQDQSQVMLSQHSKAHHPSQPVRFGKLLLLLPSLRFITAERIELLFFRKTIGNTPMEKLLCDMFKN
Chain of Sphingosine 1-phosphate receptor 2 (O95136 whole entry): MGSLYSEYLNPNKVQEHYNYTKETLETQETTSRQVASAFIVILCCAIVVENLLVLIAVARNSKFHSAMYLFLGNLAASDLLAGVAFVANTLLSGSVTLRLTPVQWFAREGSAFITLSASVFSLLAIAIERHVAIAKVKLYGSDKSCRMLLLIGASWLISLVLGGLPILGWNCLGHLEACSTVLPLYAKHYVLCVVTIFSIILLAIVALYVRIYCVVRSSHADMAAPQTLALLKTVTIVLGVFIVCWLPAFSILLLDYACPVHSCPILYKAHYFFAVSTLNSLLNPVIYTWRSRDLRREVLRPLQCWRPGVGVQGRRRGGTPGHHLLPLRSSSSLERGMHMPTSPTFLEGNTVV
Chain of Cytochrome P450 3A4 (P08684 whole entry): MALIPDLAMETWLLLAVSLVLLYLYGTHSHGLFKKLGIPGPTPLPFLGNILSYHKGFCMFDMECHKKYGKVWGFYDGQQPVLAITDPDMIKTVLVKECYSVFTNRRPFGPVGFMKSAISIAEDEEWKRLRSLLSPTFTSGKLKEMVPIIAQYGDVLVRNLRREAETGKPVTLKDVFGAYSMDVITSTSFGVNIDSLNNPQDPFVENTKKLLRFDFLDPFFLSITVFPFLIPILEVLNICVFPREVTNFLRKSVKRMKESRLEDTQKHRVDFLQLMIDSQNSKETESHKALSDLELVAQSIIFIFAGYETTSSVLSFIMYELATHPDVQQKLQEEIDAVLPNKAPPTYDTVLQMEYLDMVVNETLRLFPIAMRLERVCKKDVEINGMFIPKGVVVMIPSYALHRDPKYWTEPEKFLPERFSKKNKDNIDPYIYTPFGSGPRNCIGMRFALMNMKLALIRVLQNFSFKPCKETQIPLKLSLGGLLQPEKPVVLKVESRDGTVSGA

For the compound `O=C(Nc1ccccc1Cl)Oc1ccc2ccccc2c1`, the IC50 in assay [1] is > 100 µM (active).

For the compound `CCC/C=C/C1C(=O)C2OC2C2(OCC(CC)(CC)CO2)C1CO` (centres undefined), the AC50 was 0.004 µM (inconclusive) in [2] and 3.98 µM (inconclusive) in [3].

Regarding `COc1ccc(Cn2cccc(NC(=O)Nc3cccc(C#N)c3)c2=O)cc1`, the IC50 in [4] was > 111 µM (not active); in assay [5], 9.07 µM (active).

Turning to `NC(=O)c1sc2cc(C(F)(F)F)cnc2c1-c1cccs1`, the IC50 in assay [6] is recorded as > 30 µM (not active).

For the compound `CCN(CC)CCNC(=O)C1C(C)=NC(/C=C2\C(=O)Nc3ccc(F)cc32)=C1C` (centres undefined), the IC50 was > 33.3 µM (inactive) in assay [7], > 10 µM (inactive) in assay [8] and > 10 µM (inactive) in assay [9].

Turning to `COc1ccc(-n2c(SCC(=O)NCC3CCCO3)nc3c4ccccc4nc-3c2O)cc1` (centres undefined), the IC50 in assay [4] was > 111 µM (not active); in assay [5] it was 9.89 µM (active).

With `N#C[C@@H]1[C@@H](c2ccc(C#Cc3ccc(F)cc3)cc2)[C@H](CO)N1C(=O)C1CCCC1`, the AC50 in assay [10] was 1.82 µM (active); in assay [11], 25.5 µM (active); in assay [12] it was 2.53 µM (active); in assay [13], 1.52 µM (active); in assay [14], 1.99 µM (active).

`CS(=O)(=O)N(CC(=O)NC1CCCCC1)Cc1ccc(F)cc1`: the IC50 in assay [15] and in assay [16] was > 39.8 µM (not active) in each case.

For `Clc1ccc(-n2nnc(-c3cc4ccccc4nc3Cl)n2)cc1Cl`, the IC50 in [17] and in [18] was > 100 µM (not active) throughout.

In the case of `CC1CCC2C(=O)N3C(CCC(C)[C@@H]3c3cccc(N4CCOCC4)c3)C(=O)N2C1c1cccc(Br)c1` (some centres undefined), the AC50 in assay [2] was 7.94 µM (inconclusive).

With `COc1cccc(-c2ccc3c(c2)[C@@H]2[C@@H](CCN2C(=O)C2CCCC2)[C@@H](CO)N3)c1`, the AC50 in assay [10] was 2.57 µM (active); in assay [19] it was > 39 µM (inactive); in assay [11], 32.9 µM (active); in assay [12] it was 2.25 µM (active); in assay [13] it was 2.12 µM (active); in assay [14] it was 1.65 µM (active).

On to `Cc1nc2c(c3c1[nH]c1ccccc13)C(O)CC(C)(C)C2` (centres undefined), for which the IC50 in assay [20] is 21.9 µM (active).

In the case of `COc1ccc(/N=C/C2=C(O)c3ccccc3CC2)cc1`, the IC50 was < 0.391 µM (not active) in assay [21] and > 100 µM (active) in [1]. In [22], the EC50 was 18.6 µM (active).

Regarding `O=C(NC1CCCC1)c1cc2c(ccc3ccccc32)o1`, the EC50 in assay [23] was 24.1 µM (active); in assay [24], 2.8 µM (active); in assay [25], 1.94 µM (active).

For `Cc1nc2cc(NN=C3C(=O)CCCC3=O)ccc2s1`, the CC50 in [26] was > 40 µM (active). The IC50 in [27] was > 50 µM (active).

As to `O=[N+]([O-])c1cnc(Nc2ccc(Cl)cn2)c([N+](=O)[O-])c1`, the CC50 in [28] is > 40 µM (active). The EC50 in assay [24] was 1.29 µM (active). Besides, the IC50 in [29] was 4.17 µM (active).

The values above are taken from ChEMBL document CHEMBL1201862, “PubChem BioAssay data set” (2004).
